For 86 compounds, XC50 results are on record in ChEMBL document CHEMBL1157539, “Thousands of chemical starting points for antimalarial lead identification” (Nature, 2010).

The structures appear in SMILES notation.

In this assay the test system is Plasmodium falciparum. Description: GSK_TCMDC: Inhibition of Plasmodium falciparum 3D7 in whole erythrocytes, using parasite LDH activity as an index of growth. In kind it is functional, organism-based. The settings on record: Plasmodium falciparum, 3D7.

The compound `O=C(Nc1cc(C(F)(F)F)cc(C(F)(F)F)c1)Nc1ccc(Cl)c(Cl)c1` came in with an XC50 of 240 nM.
The figure for `CC1(C)NC(=N)N=C(NOCC=Cc2ccccc2)N1` is 227 nM; for `N#Cc1ccc2c(c1)CCN(CCC1CCC(NC(=O)/C=C/c3ccc4ccccc4c3)CC1)CC2` (stereo unspecified) it is 724 nM.
`COc1cc(Nc2ccnc3ccc(C(F)(F)F)cc23)cc(OC)c1OC`: the XC50 is 698 nM.
Under `CCc1nonc1NC(=O)c1oc2c(C)c(C)ccc2c1C` stands 879 nM; under `CN1CCN(c2cc3c(Nc4ccc5c(cnn5Cc5ccccc5)c4)ncnc3cn2)CC1`, 1130 nM.
Under `COc1cccc(NC(=O)NC2CCN(c3ccnc(Nc4ccc(F)cc4)n3)C2)c1` (stereo unspecified) stands 570 nM; under `O=C(O)c1cc(C(F)(F)F)co1`, 825 nM.
The figure for `COc1ccc(Cc2cccc(C(C(=O)NCc3cc(Cl)cc(Cl)c3)N3CCN(C)CC3)c2)cc1` (stereo unspecified) is 694 nM; for `N#Cc1ccc(-c2ccc(C(=O)NCCCCN3CCC(c4cc(Br)c5c(c4O)CCCC5)CC3)cc2)cc1` it is 154 nM.
In the case of `CCCN(CCC)CCCNc1ccc(C(=O)Nc2ccc(C(C)C)cc2)cc1[N+](=O)[O-]`, the XC50 was 709 nM.
The figure for `CN(Cc1ccccc1)C1CCCN(c2cc(NC(=O)c3cccs3)ccn2)C1` (stereo unspecified) is 1130 nM.
Under `O=C(/C=C/c1ccc(Cl)cc1Cl)N1CCC(CCN2CCC(c3c[nH]c4ccccc34)CC2)CC1` stands 796 nM; under `CN(C)c1cccc(CN2CC=C(c3c[nH]c4ccc(Cl)cc34)CC2)c1`, 663 nM; under `Cc1cc(N(C)C)nc(Nc2ccc(NC(=O)c3ccccc3C)cc2)n1`, 1130 nM.
The figure for `COc1ccc(C2C(C(=O)Nc3cc(OC)c(OC)c(OC)c3)c3cc(OC)c(OC)cc3C(=O)N2C)cc1` (stereo unspecified) is 801 nM; for `CC[C@H](C)CNCc1ccc(OCc2cccc(COc3ccc(CNC[C@@H](C)CC)cc3I)c2)c(I)c1` it is 396 nM; for `COC(=O)c1ccc(CC(C)NCC(O)c2ccc(F)c(Cl)c2)cc1` (stereo unspecified) it is 863 nM.
In the case of `CCCCN(CCCC)Cc1cc2ccccc2cc1O`, the XC50 was determined as 348 nM.
Compound `COc1ccc(Nc2ncc3c(-c4cccc(NC(=O)Cc5cccc(F)c5)c4)c[nH]c3n2)cc1OC` returned an XC50 of 567 nM.
The figure for `Nc1nc(N)c2c(ccc3c2ccn3Cc2ccc(F)cc2)n1` is 6.53 nM.
Under `Cc1ccc(C(=O)Nc2ccc(Nc3ccnc4cc(-c5ccccn5)ccc34)cc2O)cc1` stands 111 nM; under `O=C(Nc1cccc(-c2cccc(-c3nc4ccccc4[nH]3)c2)c1)Nc1ccc(F)c(F)c1F`, 55.1 nM.
Compound `COc1ccccc1NS(=O)(=O)c1cc(C(=O)Nc2ccc(N3CCOCC3)c(S(=O)(=O)Nc3ccccc3Cl)c2)ccc1Cl` showed an XC50 of 832 nM.
The figure for `COc1ccc(CCNc2nc(NCCc3cnc[nH]3)nc(NCc3cccc4ccccc34)n2)cc1OC` is 537 nM; for `COc1ccc(C(=O)N2CCC(CN3CCOC(c4ccccc4)(c4ccccc4)C3)CC2)cc1` it is 171 nM.
Under `Oc1ccc2[nH]c(-c3cccc(F)c3)nc2c1CN1CCC(O)(c2ccccc2)CC1` stands 994 nM; under `CCCN1CCC2(CC1)NC(C(=O)NCCC(C)C)Cc1c2[nH]c2cc(Cl)ccc12` (stereo unspecified), 1380 nM; under `CS(=O)(=O)NCCCNCc1ccc(-c2ccc(-c3nc4cc(F)ccc4[nH]3)s2)cc1`, 811 nM.
The figure for `COc1cccc(OC)c1-c1ccccc1NC(=O)N1CCCc2cc(C)ccc21` is 823 nM.
On to `CN(C)CCCNCc1cn(S(=O)(=O)c2ccccc2Cl)c2ccccc12`, for which the XC50 was 1070 nM.
The figure for `CC(C)(CNC(=O)[C@@H]1CCCN(CCOc2ccc(F)c(F)c2)C1)c1nc(-c2ccc(Cl)c(O)c2)c(-c2ccncc2)[nH]1` is 722 nM.
In turn, `CCOC(=O)c1c(C)n(-c2ccccc2)c2ccc(OC(=O)c3ccc(S(=O)(=O)N(CC)CC)cc3)cc12` returned an XC50 of 748 nM.
As to `CC(C)C[C@@H](C(=O)N[C@H](C(=O)Nc1nccs1)C(C)(C)C)[C@H](CCC(F)(F)F)N(O)C=O`, the XC50 was 598 nM.
Under `CCCCCOc1ccc(C(O)C(CCC(CN2CCCCCC2)C(O)c2ccc(OCCCCC)cc2)CN2CCCCCC2)cc1` (stereo unspecified) stands 768 nM.
Under `Cc1cc(=NN=CC=Cc2ccccc2)c2ccccc2[nH]1` stands 757 nM; under `Cc1ccc(Nc2nc(NN=Cc3ccc(-c4ccc([N+](=O)[O-])cc4)o3)nc(N3CCOCC3)n2)cc1Cl`, 652 nM; under `Cc1cccc2nc(-c3ccc(-c4cccc(CNCc5cnn(-c6ccccc6)n5)c4)s3)[nH]c12`, 551 nM.
The figure for `COc1ccc(C2=C(Nc3ccc4oc5ccccc5c4c3)c3ccccc3C2=O)cc1` is 830 nM; for `Clc1ccc(Cl)c2[nH]c(CNCCCNc3nc4ccccc4[nH]3)cc12` it is 163 nM.
As for `COc1cc2c(cc1OC)C(C)(C)CN1Cc3c(c(CO)c(OC)c(OC)c3OC)CC21` (stereo unspecified), the XC50 is 782 nM.
Under `Nc1ncc(-c2cccc(OCc3ccccc3)c2)cc1-c1nnc2ccc(Cl)nn12` stands 1430 nM; under `CCOc1cc(C)ccc1C1CCN(CCCCNC(=O)c2cccc(-c3ccc(C(F)(F)F)cc3)c2)CC1`, 937 nM; under `CCOC(=O)CNC(=O)N1CCN(C(=O)NCC(=O)OCC)CC1`, 848 nM.
Compound `C[C@@H](NC(=O)c1nn(-c2ccc(Cl)cc2)c(=O)c2ccccc12)C(C)(C)C` displayed an XC50 of 1120 nM.
The figure for `CC1(C)N=C(N)N=C(N)N1OCc1ccc2c(c1)OCO2` is 3.68 nM.
For the compound `NC1CCN(CCNCc2cccc(-c3ccc(-c4nc5cc(C(F)(F)F)ccc5[nH]4)cc3)c2)C1` (stereo unspecified), the XC50 came out at 893 nM.
Under `CC(=NNC(=N)N)c1ccc2ccc3ccccc3c2c1` stands 892 nM; under `O=S(=O)(Nc1ccc(-c2ccc(CN3CCCC3)cc2)cc1)c1cccc2cccnc12`, 1020 nM.
The figure for `COc1ccc2nccc([C@@H](O)CN3CCC(NC(=O)c4cc5c(F)cc(F)cc5[nH]4)CC3)c2c1` is 245 nM; for `COc1ccc(CNCc2ccc(-c3ccc(CNCCc4ccccc4)cn3)cc2)cn1` it is 1010 nM.
In the case of `Cc1ccc(NC(=O)c2cn(-c3ccccc3)nc2-c2ccc(F)cc2)cc1[N+](=O)[O-]`, the XC50 was determined as 1000 nM.
Under `O=c1[nH]c2c(cc1CNC1CCCCC1)c(-c1ccc(F)cc1)nn2-c1ccccc1` stands 804 nM; under `CC[C@H]1CN2CC[C@H]1C[C@H]2[C@H](O)c1ccnc2ccc(C#N)cc12`, 147 nM; under `CC(C)(C(=O)NCCC1CCN(CCCCCNC(=O)/C=C/c2ccc(Cl)c(Cl)c2)CC1)c1ccc(Cl)cc1`, 1280 nM.
Under `COC(=O)c1sc2ccccc2c1NC(=O)c1ccc(C)c(C)c1` stands 1070 nM; under `O=C(Nc1ccc(C(F)(F)F)cc1)Nc1ccccc1N1CCNCC1`, 500 nM; under `CCN(CC)CCN(Cc1ccc(-c2ccc(C(F)(F)F)cc2)cc1)C(=O)Cn1c(CCc2cccc(F)c2F)nc(=O)c2cc(C)ccc21`, 936 nM.
Under `O=C(Nc1ccc(Cl)cc1)Nc1ccc2nonc2c1` stands 1100 nM; under `C[C@H](NC(=O)c1c(CN2CCC(N3CCCCC3=O)CC2)c(-c2cccs2)nc2ccccc12)C1CCCCC1`, 898 nM; under `CCOc1ccccc1NC(=O)C(Sc1nc(C)cc(C)c1C#N)c1ccccc1` (stereo unspecified), 373 nM.
Take `Cn1nc(-c2cccc(CNCc3ccccc3)c2)c2cnc(NC3CCCC3)nc21`: the XC50 was found to be 1260 nM.
The figure for `O=[N+]([O-])c1cccc(Nc2nccc(-c3cnn4ncccc34)n2)c1` is 184 nM; for `COc1cc(Cc2cnc(N)nc2N)ccc1OCc1ccc(-c2ccccc2C#N)cc1` it is 940 nM.
For `CN(CCc1ccccc1)c1ncc(-c2ccccc2CNCc2ccccc2O)cn1`, the XC50 was 1020 nM.
The figure for `CCc1cn2c3c(cc(C(=O)N[C@@H](Cc4ccccc4)[C@H](O)CNCc4cccc(C)c4)cc13)N(C)S(=O)(=O)CC2` is 246 nM.
Under `CC(NC(=O)c1cc(-c2ccccc2)nc2c1cnn2C(C)C)C1CC1` (stereo unspecified) stands 1280 nM; under `CN(C)CCCNc1ncnc2c1[nH]c1ccc(Br)cc12`, 319 nM; under `N#Cc1cccc(NC(=O)Nc2ccc(-c3ccc(-c4nc5cc(C(F)(F)F)ccc5[nH]4)cc3)cc2)c1`, 145 nM.
Under `NC[C@H](CC1CCCCC1)NC(=O)c1ccc(-c2ccnc3[nH]ccc23)s1` stands 950 nM.
For the compound `COc1ccc(-c2nc3c(N)nc(N)nc3nc2C(C)C)cc1`, the XC50 was 188 nM.
Under `NCC1(c2nc(-c3ccc(Cl)c(O)c3)c(-c3ccncc3)[nH]2)CCCCC1` stands 744 nM.
In the case of `Cc1ccc(NC(=O)NC2CCN(c3ccnc4cc(Cl)ccc34)C2)cc1` (stereo unspecified), the XC50 turned out to be 149 nM.
The figure for `Cc1cc(N[C@@H](Cc2ccccc2)C(=O)NCc2cccc(F)c2)nc(NCCCOC(C)C)n1` is 920 nM; for `O=C(/C=C/C=C/c1ccccc1)NCCCCCN1CCC(c2c[nH]c3ccccc23)CC1` it is 1170 nM.
For the compound `OC(CNCCc1ccccc1)Cn1c2ccc(Cl)cc2c2cc(Cl)ccc21` (stereo unspecified), the XC50 was found to be 733 nM.
The figure for `CCNc1cc(C(=O)N[C@@H](Cc2ccccc2)[C@H](O)CNCc2cc(OC)cc(OC)c2)cc(N2CCCS2(=O)=O)c1` is 43 nM.
Consider `CCOC(=O)c1cc(C(=O)NCCCCN2CCC(c3cn(C)c4ccccc34)CC2)ccc1-c1ccc(C(F)(F)F)cc1`, for which the XC50 came to 1200 nM.
Under `Cc1ccc(Nc2nc(C)cc(Nc3cccc(NS(C)(=O)=O)c3)n2)cc1` stands 917 nM; under `Cc1cc(NC(=O)c2cccs2)ccc1OC1CCN(Cc2ccccc2)C1` (stereo unspecified), 895 nM; under `CC(C)(C)OC(=O)NCc1ccc(Nc2nnc(-c3ccc(OCC(=O)NCc4cc(C(F)(F)F)cc(C(F)(F)F)c4)c([N+](=O)[O-])c3)o2)cc1`, 460 nM.
The figure for `CN(C)c1ccc(-c2ccc(C(=O)NC3CCN(Cc4ccccc4F)CC3)s2)cc1` is 1400 nM; for `O=S(=O)(/C=C/c1ccccc1)N(Cc1ccc(-c2ccc(CNCCOc3ccccc3)cc2)cc1)CC1CCCCN1` (stereo unspecified) it is 744 nM; for `CCCc1c(C(=O)OCC)c2cc(O)ccc2n1-c1ccc(OC)cc1` it is 138 nM.
`NC(=O)c1cc2nc(Nc3ccc(F)cc3)nc(NC3CCC3)c2[nH]1`: the XC50 stood at 195 nM.
In turn, `C#CCN1CCC2=C(C1)c1c(O)cc(C(C)CCCc3ccc(F)cc3)cc1OC2(C)C` (stereo unspecified) came in with an XC50 of 731 nM.
